From publication PMC10901292 (European journal of medicinal chemistry, 2024) come the findings set out here.

Data set [1] deals with T1, EZH2 (Homo sapiens, UniProt Q15910). The data set is described as follows: Western blot of EZH2 protein level in MV4. The data set is classed as cell-based. The following applies: 11 cells, 24 h treatment, all tested concentrations (Fig. 8A, 8C). (Immunoblotting shows a protein as a band on a membrane.)
Target sequence in this assay (Q15910 whole entry): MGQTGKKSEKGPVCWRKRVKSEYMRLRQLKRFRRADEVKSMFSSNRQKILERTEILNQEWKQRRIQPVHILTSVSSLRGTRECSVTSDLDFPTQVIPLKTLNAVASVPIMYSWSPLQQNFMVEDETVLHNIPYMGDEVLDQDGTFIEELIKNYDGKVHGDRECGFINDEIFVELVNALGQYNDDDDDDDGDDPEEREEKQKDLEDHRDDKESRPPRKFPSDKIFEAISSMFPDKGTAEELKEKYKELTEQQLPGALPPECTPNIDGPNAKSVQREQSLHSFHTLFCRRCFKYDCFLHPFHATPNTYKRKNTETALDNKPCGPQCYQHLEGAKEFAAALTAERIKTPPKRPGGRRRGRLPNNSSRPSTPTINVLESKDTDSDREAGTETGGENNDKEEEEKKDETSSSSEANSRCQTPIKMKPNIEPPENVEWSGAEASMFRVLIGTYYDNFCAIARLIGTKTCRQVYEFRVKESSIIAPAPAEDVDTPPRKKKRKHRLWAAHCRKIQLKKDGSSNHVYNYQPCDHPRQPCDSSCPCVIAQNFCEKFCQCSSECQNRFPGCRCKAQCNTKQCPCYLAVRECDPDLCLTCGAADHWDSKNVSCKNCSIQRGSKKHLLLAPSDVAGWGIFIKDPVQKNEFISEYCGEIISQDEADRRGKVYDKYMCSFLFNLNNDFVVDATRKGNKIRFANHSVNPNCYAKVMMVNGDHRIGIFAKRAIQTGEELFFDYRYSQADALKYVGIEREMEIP
Target sequence in this assay (O75530 2-441 partner limits assumed): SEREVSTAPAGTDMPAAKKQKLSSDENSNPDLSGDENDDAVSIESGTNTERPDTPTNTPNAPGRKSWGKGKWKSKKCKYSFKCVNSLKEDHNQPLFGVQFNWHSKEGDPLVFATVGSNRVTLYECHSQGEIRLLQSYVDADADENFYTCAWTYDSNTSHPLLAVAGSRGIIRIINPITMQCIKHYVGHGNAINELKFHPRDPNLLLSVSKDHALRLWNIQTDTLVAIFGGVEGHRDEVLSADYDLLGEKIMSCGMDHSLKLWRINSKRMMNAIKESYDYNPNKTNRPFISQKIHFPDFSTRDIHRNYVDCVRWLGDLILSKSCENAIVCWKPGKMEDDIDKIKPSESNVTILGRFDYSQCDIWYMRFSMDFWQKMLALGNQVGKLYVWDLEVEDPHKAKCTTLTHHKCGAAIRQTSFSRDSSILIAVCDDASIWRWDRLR
Target sequence in this assay (Q15022 whole entry partner): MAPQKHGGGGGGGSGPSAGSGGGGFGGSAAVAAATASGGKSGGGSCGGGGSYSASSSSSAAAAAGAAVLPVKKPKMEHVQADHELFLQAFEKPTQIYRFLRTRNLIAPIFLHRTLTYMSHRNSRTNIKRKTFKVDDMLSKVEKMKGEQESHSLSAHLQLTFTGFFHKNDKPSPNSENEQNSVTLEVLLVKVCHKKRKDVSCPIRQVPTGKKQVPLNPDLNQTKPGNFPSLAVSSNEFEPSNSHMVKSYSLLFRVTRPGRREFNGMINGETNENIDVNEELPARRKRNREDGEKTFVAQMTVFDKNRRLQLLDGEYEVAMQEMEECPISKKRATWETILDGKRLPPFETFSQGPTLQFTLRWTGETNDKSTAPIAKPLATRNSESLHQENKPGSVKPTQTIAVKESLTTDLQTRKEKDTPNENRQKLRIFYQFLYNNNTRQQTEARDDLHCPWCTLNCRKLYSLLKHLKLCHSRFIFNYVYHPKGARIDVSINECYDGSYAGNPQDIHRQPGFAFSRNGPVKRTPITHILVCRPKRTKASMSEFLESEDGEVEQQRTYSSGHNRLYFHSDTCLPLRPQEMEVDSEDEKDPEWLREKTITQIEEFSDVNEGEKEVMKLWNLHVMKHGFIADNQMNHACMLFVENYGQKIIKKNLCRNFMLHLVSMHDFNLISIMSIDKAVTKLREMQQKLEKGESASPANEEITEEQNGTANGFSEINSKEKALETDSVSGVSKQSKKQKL
The target in data set [2] is T1, EZH2. The data set is described as follows: Western blot of EZH2 protein level in EOL-1 cells. The data set is classed as cell-based. The note with it: for EZH2 degradation (EZH2 protein level): 24 h treatment.
Target sequence in this assay (Q15910 whole entry): as the sequence (Q15910 whole entry) above
Target sequence in this assay (O75530 2-441 partner limits assumed): as the sequence (O75530 2-441 partner limits assumed) above
Target sequence in this assay (Q15022 whole entry partner): as the sequence (Q15022 whole entry partner) above
For the next data set, the system named is H3K27me3. Briefly: Western blot of H3K27me3 mark in EOL-1 cells. The data set is classed as cell-based. The note with it: 24 h treatment (Fig. 4A).
The next data set relates to EED. Briefly: Western blot of EED in EOL-1 cells. The note with it: 24 h treatment (Fig. 4B). Type of data set: cell-based.
The target in data set [3] is T2, EZH1 (Homo sapiens, UniProt Q92800). Briefly: Western blot of EZH1 degradation. The following applies: Fig. S3. The data set is classed as cell-based.
Target sequence in this assay (Q92800 whole entry): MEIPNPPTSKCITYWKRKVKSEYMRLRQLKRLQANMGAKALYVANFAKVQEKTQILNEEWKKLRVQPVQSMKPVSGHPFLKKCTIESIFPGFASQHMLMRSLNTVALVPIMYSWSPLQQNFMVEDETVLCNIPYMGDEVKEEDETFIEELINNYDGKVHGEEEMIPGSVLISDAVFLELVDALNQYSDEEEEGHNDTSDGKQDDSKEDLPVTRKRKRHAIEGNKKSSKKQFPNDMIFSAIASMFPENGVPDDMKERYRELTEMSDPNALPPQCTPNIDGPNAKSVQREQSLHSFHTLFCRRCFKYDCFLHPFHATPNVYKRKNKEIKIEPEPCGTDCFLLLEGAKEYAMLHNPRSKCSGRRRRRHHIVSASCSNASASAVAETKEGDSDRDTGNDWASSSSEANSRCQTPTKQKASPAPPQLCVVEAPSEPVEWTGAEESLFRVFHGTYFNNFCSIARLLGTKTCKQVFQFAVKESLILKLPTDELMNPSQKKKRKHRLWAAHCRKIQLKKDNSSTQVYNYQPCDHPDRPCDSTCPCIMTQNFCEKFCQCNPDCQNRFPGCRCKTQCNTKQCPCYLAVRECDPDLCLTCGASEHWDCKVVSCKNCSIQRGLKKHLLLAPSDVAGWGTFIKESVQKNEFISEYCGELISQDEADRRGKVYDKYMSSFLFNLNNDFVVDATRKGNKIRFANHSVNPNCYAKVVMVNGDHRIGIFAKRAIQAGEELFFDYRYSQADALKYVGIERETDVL
Target sequence in this assay (O75530 2-441 partner limits assumed): as the sequence (O75530 2-441 partner limits assumed) above
Target sequence in this assay (Q15022 whole entry partner): as the sequence (Q15022 whole entry partner) above
In data set [4] the test system is panel of 20 protein methyltransferases. Briefly: Radioactive methyltransferase selectivity panel. The following applies: 10 μM, two replicates. Type of data set: biochemical.
Data set [5] addresses T1, EZH2. Briefly: EZH2 methyltransferase inhibition assay. Type of data set: biochemical. The note with it: Fig. S2A.
The target in data set [6] is T2, EZH1. The data set is described as follows: EZH1 methyltransferase inhibition assay. Type of data set: biochemical. The note with it: Fig. S2B.
Another data set relates to EOL-1 cells. Briefly: Cell viability WST-8. The data set is classed as cell-based. On the technique in general: Formazan colour is commonly taken as a measure of viable cells.
Another data set relates to MV4; 11 cells. Briefly: Cell viability WST-8. Type of data set: cell-based.
A further data set concerns K562 cells. The data set is described as follows: Cell viability assay, K562. The data set is classed as cell-based. The note with it: K562 cells (insensitive to EZH2 KO), Fig. S4.
The target in data set [7] is T1, EZH2. Briefly: Western blot of EZH2 protein level in RS4. The data set is classed as cell-based. The note with it: 11 cells, 24 h treatment, 0.1 and 0.3 μM.
Target sequence in this assay (Q15910 whole entry): as the sequence (Q15910 whole entry) above
Target sequence in this assay (O75530 2-441 partner limits assumed): as the sequence (O75530 2-441 partner limits assumed) above
Target sequence in this assay (Q15022 whole entry partner): as the sequence (Q15022 whole entry partner) above
In data set [8] the target is T1, EZH2. Briefly: Western blot of EZH2 protein level in BT549 cells. Type of data set: cell-based. The note with it: 48 h treatment.
Target sequence in this assay (Q15910 whole entry): as the sequence (Q15910 whole entry) above
Target sequence in this assay (O75530 2-441 partner limits assumed): as the sequence (O75530 2-441 partner limits assumed) above
Target sequence in this assay (Q15022 whole entry partner): as the sequence (Q15022 whole entry partner) above
For data set [9], the target named is T1, EZH2. The data set is described as follows: Western blot of EZH2 protein level in MDA-MB-468 cells. The data set is classed as cell-based. The note with it: 48 h treatment.
Target sequence in this assay (Q15910 whole entry): as the sequence (Q15910 whole entry) above
Target sequence in this assay (O75530 2-441 partner limits assumed): as the sequence (O75530 2-441 partner limits assumed) above
Target sequence in this assay (Q15022 whole entry partner): as the sequence (Q15022 whole entry partner) above
In another data set the test system is BT549 in vitro spheroids. The data set is described as follows: Bio-Assembler 3D in vitro spheroid TNBC model. The following applies: 5 d treatment. The data set is classed as cell-based.
Data set [10] in a line: Mouse pharmacokinetic study.
Data set [11] in a line: Tolerability observed in the mouse PK study. The note with it: mice, single IP injection 50 mg/kg.
A further data set deals with BT549 cells. The data set is described as follows: Cell viability WST-8. Type of data set: cell-based.
A further data set concerns MDA-MB-468 cells. Briefly: Cell viability WST-8. The data set is classed as cell-based.

In the case of “(2R,4S)-1-((S)-2-(11-(3-(4-((3’-(((4,6-dimethyl-2-oxo-1,2-dihydropyridin-3-yl)methyl)carbamoyl)-5’-(ethyl(tetrahydro-2H-pyran-4-yl)amino)-4′-methyl-[1,1′-biphenyl]-4-yl)methyl)piperazin-1-yl)propanamido)undecanamido)-3,3-dimethylbutanoyl)-4-hydroxy-N-(4-(4-methylthiazol-5-yl)benzyl)pyrrolidine-2-carboxamide [MS8847N2]”, the EZH2 degradation result on EZH2 [1] is “did not induce EZH2 degradation”.

Consider `CCN(c1cc(-c2ccc(CN3CCN(CCC(=O)NCCCCCCCCCCC(=O)N[C@H](C(=O)N4C[C@H](O)C[C@H]4C(=O)NCc4ccc(-c5scnc5C)cc4)C(C)(C)C)CC3)cc2)cc(C(=O)N(C)Cc2c(C)cc(C)n(C)c2=O)c1C)C1CCOCC1` [MS8847N1, (2S,4R)-1-((S)-2-(11-(3-(4-((3’-(ethyl(tetrahydro-2H-pyran-4-yl)amino)-4′-methyl-5’-(methyl((1,4,6-trimethyl-2-oxo-1,2-dihydropyridin-3-yl)methyl)carbamoyl)-[1,1′-biphenyl]-4-yl)methyl)piperazin-1-yl)propanamido)undecanamido)-3,3-dimethylbutanoyl)-4-hydroxy-N-(4-(4-methylthiazol-5-yl)benzyl)pyrrolidine-2-carboxamide], for which the EZH2 degradation entry on EZH2 [1] is “did not induce EZH2 degradation”.

With `CCN(c1cc(-c2ccc(CN3CCN(CCC(=O)NCCCCCCCCC(=O)N[C@H](C(=O)N4C[C@H](O)C[C@H]4C(=O)NCc4ccc(-c5scnc5C)cc4)C(C)(C)C)CC3)cc2)cc(C(=O)NCc2c(C)cc(C)[nH]c2=O)c1C)C1CCOCC1` [Compound 6, (2S,4R)-1-((S)-2-(9-(3-(4-((3’-(((4,6-dimethyl-2-oxo-1,2-dihydropyridin-3-yl)methyl)carbamoyl)-5’-(ethyl(tetrahydro-2H-pyran-4-yl)amino)-4′-methyl-[1,1′-biphenyl]-4-yl)methyl)piperazin-1-yl)propanamido)nonanamido)-3,3-dimethylbutanoyl)-4-hydroxy-N-(4-(4-methylthiazol-5-yl)benzyl)pyrrolidine-2-carboxamide], the “EZH2 degradation (EZH2 protein level)” value at EZH2 [2] (SAR study (Fig. 3)) is recorded as “partial degradation”.

As for `CCN(c1cc(-c2ccc(CN3CCN(CCC(=O)NCCCCCCCCCCC(=O)N[C@H](C(=O)N4C[C@H](O)C[C@H]4C(=O)NCc4ccc(-c5scnc5C)cc4)C(C)(C)C)CC3)cc2)cc(C(=O)NCc2c(C)cc(C)[nH]c2=O)c1C)C1CCOCC1` [MS8847, (2S,4R)-1-((S)-2-(11-(3-(4-((3’-(((4,6-dimethyl-2-oxo-1,2-dihydropyridin-3-yl)methyl)carbamoyl)-5’-(ethyl(tetrahydro-2H-pyran-4-yl)amino)-4′-methyl-[1,1′-biphenyl]-4-yl)methyl)piperazin-1-yl)propanamido)undecanamido)-3,3-dimethylbutanoyl)-4-hydroxy-N-(4-(4-methylthiazol-5-yl)benzyl)pyrrolidine-2-carboxamide], the “time at which EZH2 degradation started” value at EZH2 [2] (300 nM) is 8 h. The “time to maximum EZH2 degradation” value on EZH2 [2] (300 nM) is at most 24 h. Also, the EZH2 degradation entry on EZH2 [2] (24 h, 0.1 and 0.3 μM, comparison of five degraders (Fig. 7A)) is reported as “complete degradation”; on EZH2 [2] (24 h treatment at the indicated concentration (Fig. 4A, Fig. 6A)), “effectively induced EZH2 degradation”; on EZH2 [1] it was “near-complete degradation”; on EZH2 [7], “induced EZH2 degradation”; at EZH2 [8], “potent EZH2 degradation”; at EZH2 [9], “potent EZH2 degradation”. Moreover, the “EZH2 degradation (EZH2 protein level)” value at EZH2 [2] (0.1 μM (Fig. 3)) and on EZH2 [2] (1 μM (Fig. 3)) was “complete EZH2 degradation” throughout. For the same compound, the “reduction of the H3K27me3 mark” value with H3K27me3 was “reduced the H3K27me3 mark”. Further, in the data set with EED, the EED degradation entry is “potently degraded”. Further, the EZH1 degradation entry at EZH1 [3] is recorded as “does not degrade”. Further, the “inhibition of any of the 20 methyltransferases” value in data set [4] is listed as at most 50%. The “inhibition of the enzymatic activity of EZH2” value on EZH2 [5] is “inhibits”. Further, the “inhibition of the enzymatic activity of EZH1” value at EZH1 [6] is “inhibits”. In addition, the “fold more potent than MS8815 (anti-proliferative IC50)” value in the data set with EOL-1 cells is “more than 3 fold”. Also, in the data set with MV4; 11 cells, the “fold more potent than U3i (cell growth IC50)” value was “over 2 fold”. Moreover, the cell growth inhibition entry in the data set with K562 cells is recorded as “did not inhibit cell growth”. Besides, the “cell viability of BT549 cells in spheroids (Cell Titer Glo 3D)” value in the data set with BT549 in vitro spheroids is on record as “significantly reduced”. In addition, the “size of BT549 in vitro spheroids” value with BT549 in vitro spheroids (compared to DMSO-treated control tumors) is given as “significantly reduced”. The “time at which Cmax was observed” value in [10] (male Swiss albino mice, single IP injection 50 mg/kg, HCl form) was found to be 4 h. Besides, the concentration at 9 h in [10] (male, Swiss Albino, mouse, plasma, ip, 50 mg/kg) was over 1000 nM. The “clinical signs of toxicity” value in [11] is given as “did not exhibit obvious clinical signs of toxicity”.

On to `CCN(c1cc(-c2ccc(CN3CCN(CCC(=O)NCCCCCCCC(=O)N[C@H](C(=O)N4C[C@H](O)C[C@H]4C(=O)NCc4ccc(-c5scnc5C)cc4)C(C)(C)C)CC3)cc2)cc(C(=O)NCc2c(C)cc(C)[nH]c2=O)c1C)C1CCOCC1` [Compound 5, (2S,4R)-1-((S)-2-(8-(3-(4-((3’-(((4,6-dimethyl-2-oxo-1,2-dihydropyridin-3-yl)methyl)carbamoyl)-5’-(ethyl(tetrahydro-2H-pyran-4-yl)amino)-4′-methyl-[1,1′-biphenyl]-4-yl)methyl)piperazin-1-yl)propanamido)octanamido)-3,3-dimethylbutanoyl)-4-hydroxy-N-(4-(4-methylthiazol-5-yl)benzyl)pyrrolidine-2-carboxamide], for which the “EZH2 degradation (EZH2 protein level)” value on EZH2 [2] (SAR study (Fig. 3)) is on record as “partial degradation”.

Turning to `CCN(c1cc(-c2ccc(CN3CCOCC3)cc2)cc(C(=O)NCc2c(C)cc(C)[nH]c2=O)c1C)C1CCOCC1` [EPZ-6438, Tazemetostat], the “effect on cell growth” value in the data set on BT549 cells and in the data set on MDA-MB-468 cells was “no effect” in each case.

As for `CCN(c1cc(-c2ccc(CN3CCN(CCC(=O)NCCCCCCCCCC(=O)N[C@H](C(=O)N4C[C@H](O)C[C@H]4C(=O)NCc4ccc(-c5scnc5C)cc4)C(C)(C)C)CC3)cc2)cc(C(=O)NCc2c(C)cc(C)[nH]c2=O)c1C)C1CCOCC1` [Compound 7, (2S,4R)-1-((S)-2-(10-(3-(4-((3’-(((4,6-dimethyl-2-oxo-1,2-dihydropyridin-3-yl)methyl)carbamoyl)-5’-(ethyl(tetrahydro-2H-pyran-4-yl)amino)-4′-methyl-[1,1′-biphenyl]-4-yl)methyl)piperazin-1-yl)propanamido)decanamido)-3,3-dimethylbutanoyl)-4-hydroxy-N-(4-(4-methylthiazol-5-yl)benzyl)pyrrolidine-2-carboxamide], the “EZH2 degradation (EZH2 protein level)” value on EZH2 [2] (0.1 μM (Fig. 3)) is on record as “reduced the EZH2 protein level completely”; at EZH2 [2] (1 μM (Fig. 3)), “less profoundly”.
